This is an account of results in patent publication US20250188080A1, “IMIDAZOLONYLQUINOLINE COMPOUNDS AND THERAPEUTIC USES THEREOF” (Merck Patent GmbH, priority 2019, published 2025).

Molecules are shown by their SMILES. A value given as a limit tells only on which side of the number the result lay.

The subject of data set [1] is pCHK2 (Cellular mechanistic ATM, HCT-116). Briefly: Cellular pCHK2 assay (bleomycin-induced phospho-Thr68 CHK2). It counts as cell-based, human. The text has this:
For the identification of substances which inhibit the phosphorylation of the protein kinase CHK2 (checkpoint kinase 2) at the amino acid threonine 68, an immunofluorescence-based “high content” analysis assay was used in HCT116 cells. In vitro cell-based immunofluorescence assay for the identification of inhibitors of bleomycin-induced phosphorylation of CHK2 (phospho-Thr68) in the human colon carcinoma cell line HCT116: HCT116 cells are sown out in a defined cell density in 384-well plates in culture medium (DMEM high glucose, 2 mM GlutaMax, 1 mM Na pyruvate, 10% FCS) and incubated overnight at 37° C. and 10% of CO2. On the following day, the test substances are added in a defined concentration range (1 nM to 30 μM) in combination with 10 μM bleomycin, where the concentration of the solvent DMSO is kept constant at 0.5%. After incubation for four hours at 37° C. and 10% of CO2, the cells are fixed (5 min, 4% formaldehyde in PBS), permeabilised (10 min, 0.2% Triton X-100 in PBS) and, after blocking of nonspecific binding sites (10% goat serum, 1% BSA in PBS), incubated overnight at 4° C. with a specific anti-pCHK2 antibody (cell signaling #2661). pCHK2 (Thr68) is determined using an Alexa488-labelled secondary anti-rabbit IgG antibody. Parallel staining of DNA with propidium iodide enables determination of the cell count. The pCHK2 signal is detected using a high-content imager (Molecular Devices IMX Ultra) and automatic image analysis using the MetaXpress software belonging to the instrument. The number of cell nuclei which have a pCHK2 signal above a defined background is determined.

For data set [2], the system named is pCHK1 (Cellular mechanistic ATR, HCT-116). Briefly: pCHK1 cellular assay. In kind it is cell-based, human.
Data set [3] in a line: Microsomal stability (intrinsic clearance), rat. In kind it is in vitro ADME. Conditions: for microsomal CLint: liver microsomes. The source says:
A microsomal stability assay is used to measure in vitro clearance (Clint). The assay involves measuring the rate of disappearance of a compound due to its intrinsic attitude to be metabolized (“intrinsic” meaning that the disappearance is not affected by other properties like permeability, binding etc. that play a role when quantifying in vivo clearance). The microsomal stability (intrinsic clearance, Clint) and, thus, metabolic stability is generally given as μl/min/mg protein. It can be visualized as the volume of solution that 1 mg of microsomes is able to clear of the compound in one minute. The microsomal/metabolic stability of each compound was determined by measurement of the change in LC-MS/MS peak area over time. Data are fitted according to a log linear model in line with Michaelis/Menten. The Clint value is calculated from the slope (k) of the linear log transformed concentration per time plot divided by the amount of microsomes (0.5 mg/ml): Clint (μl/min/mg protein)=k*1000/protein concentration. Assay Explorer software was used to automatically calculate the slope k of the decline.

The target in data set [4] is T1, human phosphodiesterase-4A1A (Homo sapiens, UniProt P27815).
T1 construct: purchased Cerep 4074; host or cells: Sf9 cells
Description: PDE4A1A assay (Cerep). It counts as biochemical. The method, then: A commercially available assay of Cerep was used (Catalog ref. 4074; SOP no 1C1056), which is designed to evaluate the effects of compounds on the activity of the human phosphodiesterase-4A1A quantified by measuring the formation of 5′AMP from cAMP using a human recombinant enzyme expressed in Sf9 cells.
The test compound, reference compound or water (control) are added to a buffer containing 40 mM Tris/HCl (pH 7.4) and 8 mM MgCl2, 450 nM cAMP and 0.25 μCi [^3H]cAMP.
Thereafter, the reaction is initiated by addition of the enzyme (about 10 U) and the mixture is incubated for 20 min at 22° C.
(§1) For basal control measurements, the enzyme is omitted from the reaction mixture.
Following incubation SPA beads are added.
(§2) After 30 min at 22° C. under shaking, the amount of [^3H]5′AMP is quantified with a scintillation counter (Topcount, Packard).
(§3) The results are expressed as a percent inhibition of the control enzyme activity.
(§4) The standard inhibitory reference compound is Ro 20-1724, which is tested in each experiment at several concentrations to obtain an inhibition curve from which its IC50 value is calculated.

Data set [5] addresses T2, human phosphodiesterase-4D2 (Homo sapiens, UniProt Q08499).
T2 construct: purchased Cerep 4077; host or cells: Sf9 cells
Description: PDE4D2 assay (Cerep). It counts as biochemical. As to the method:
A commercially available assay of Cerep was used (Catalog ref. 4077; SOP no 1C1045) The assay is designed to evaluate the effects of test compounds on the activity of the human phosphodiesterase-4D2 quantified by measuring the formation of 5′AMP from cAMP using a human recombinant enzyme expressed in Sf9 cells.
The test compound, reference compound or water (control) are added to a buffer containing 40 mM Tris/HCl (pH 7.4) and 8 mM MgCl2, 450 nM cAMP and 0.0125 μCi [^3H]cAMP.
Thereafter, the reaction is initiated by addition of the enzyme (about 1.5 U) and the mixture is incubated for 20 min at 22° C.
as §1
Following incubation SPA (scintillation proximity assay) beads are added.
as §2, §3, §4

Where [6] appears, read: Homo sapiens, HCT-116, HCT-116 as printed in the table.

T1 sequence (P27815 1-647 isoform P27815-4): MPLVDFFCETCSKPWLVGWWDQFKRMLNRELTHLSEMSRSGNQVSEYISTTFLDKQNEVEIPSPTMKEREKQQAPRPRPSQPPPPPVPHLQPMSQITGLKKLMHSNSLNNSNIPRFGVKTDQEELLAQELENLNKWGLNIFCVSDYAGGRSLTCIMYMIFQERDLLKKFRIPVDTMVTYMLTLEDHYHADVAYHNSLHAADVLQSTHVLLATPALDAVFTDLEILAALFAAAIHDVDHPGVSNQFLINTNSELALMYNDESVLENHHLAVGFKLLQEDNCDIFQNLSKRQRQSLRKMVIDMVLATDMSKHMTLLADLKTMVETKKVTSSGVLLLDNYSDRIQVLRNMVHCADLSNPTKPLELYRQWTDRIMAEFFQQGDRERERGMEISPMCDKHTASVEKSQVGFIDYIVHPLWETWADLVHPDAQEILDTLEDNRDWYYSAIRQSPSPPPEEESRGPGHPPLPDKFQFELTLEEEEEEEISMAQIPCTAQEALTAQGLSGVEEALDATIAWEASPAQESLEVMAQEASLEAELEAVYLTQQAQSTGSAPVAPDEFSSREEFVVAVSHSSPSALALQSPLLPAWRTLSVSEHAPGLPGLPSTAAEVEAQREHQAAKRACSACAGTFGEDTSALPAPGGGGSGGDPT
T2 sequence (Q08499 303-809 limits assumed): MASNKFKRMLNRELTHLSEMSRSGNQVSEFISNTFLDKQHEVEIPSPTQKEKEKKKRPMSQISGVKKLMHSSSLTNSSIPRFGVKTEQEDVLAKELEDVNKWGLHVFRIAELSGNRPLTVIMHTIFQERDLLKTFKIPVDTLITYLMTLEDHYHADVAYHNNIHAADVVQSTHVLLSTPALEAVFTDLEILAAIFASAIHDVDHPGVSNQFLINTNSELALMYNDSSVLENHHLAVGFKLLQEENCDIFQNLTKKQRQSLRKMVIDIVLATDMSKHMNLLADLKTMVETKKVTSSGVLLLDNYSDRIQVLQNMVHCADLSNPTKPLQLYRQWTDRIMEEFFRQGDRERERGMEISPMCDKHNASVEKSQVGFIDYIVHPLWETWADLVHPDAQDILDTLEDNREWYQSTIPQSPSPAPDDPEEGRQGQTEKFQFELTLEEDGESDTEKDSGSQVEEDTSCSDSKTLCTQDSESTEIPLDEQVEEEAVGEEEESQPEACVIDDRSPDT

What is called IC50 is the concentration that inhibits the measured activity by half. A word on the microsomal CLint: it is the capacity of the preparation to metabolise the compound, expressed as a volume cleared per time. A higher microsomal CLint goes with faster metabolism. Turning to `COc1cc2ncc3c(c2cc1-c1cn(C)nc1C)n(-c1c(F)cncc1OC)c(=O)n3C` (single isomer, unassigned) [Compound 1, 8-(1,3-Dimethyl-1H-pyrazol-4-yl)-1-(Sa)-(3-fluoro-5-methoxy-pyridin-4-yl)-7-methoxy-3-methyl-1,3-dihydro-imidazo[4,5-c]quinolin-2-one], the IC50 in data set [1] (HCT-116, 10 μM bleomycin) was 0.013 µM; in data set [2] (setting [6]), at least 24 µM; in data set [4], 5.2 µM; in data set [5] it was 3 µM. Moreover, the microsomal CLint in data set [3] was below 10 µL/min/mg.
Take `COc1cc2ncc3c(c2cc1-c1cn(C)nc1C)n(-c1c(F)cncc1OC)c(=O)n3C` (single isomer, unassigned) [Compound 2, 8-(1,3-Dimethyl-1H-pyrazol-4-yl)-1-(Ra)-(3-fluoro-5-methoxy-pyridin-4-yl)-7-methoxy-3-methyl-1,3-dihydro-imidazo[4,5-c]quinolin-2-one]: the IC50 in data set [1] (HCT-116, 10 μM bleomycin) is 0.076 µM; in data set [2] (HCT-116), above 30 µM; in data set [4], 0.93 µM; in data set [5], 0.44 µM. Besides, the “CLint (rat)” value in data set [3] (rat microsomes) is on record as below 10 μl/min/mg protein.
For the compound `COc1cc2ncc3c(c2cc1-c1cn(C)nc1C)n(-c1c(F)cncc1OC)c(=O)n3C` [Compound Y, 8-(1,3-dimethyl-1H-pyrazol-4-yl)-1-(3-fluoro-5-methoxypyridin-4-yl)-7-methoxy-3-methyl-1,3-dihydroimidazo[4,5-c]quinolin-2-one, reference compound], the IC50 in data set [1] (Homo sapiens, HCT-116, HCT-116, 10 μM bleomycin) stood at 0.086 µM; in data set [2] (setting [6]) it was 7.9 µM; in data set [4], 1.1 µM; in data set [5], 0.6 µM. The compound further registered an intrinsic clearance (microsomal CLint) in data set [3] of 19 µL/min/mg.
